Reference: patent US20050070496A1, “Semi-solid formulations for the oral administration of taxoids” (Aventis Pharma S. A., priority 2003, published 2005)
Marks after values point to notes of the source that are not given here.

How the values were obtained:
[1] = Solubility in semi-solid excipients (at the melted state) and solid excipients
Excerpt: The solubility of taxoid of formula Ib at room temperature has been determined by X ray diffraction.

[2] = Solubility of taxoid of formula Ib in liquid excipients; assay type: physicochemical
Excerpt: After a first selection of proper excipients (in terms of safety and developability), the solubility of taxoids in the excipient was the first screening step for the choice of the excipient and the selection of the prototypes. Then, the prototypes (liquid or semi-solid) were manufactured, and characterized in terms of in vitro behavior in simulated GI media and chemical stability. Finally, the physical properties and stability of the semi-solid prototypes have been investigated.

CC(=O)O[C@H]1C(=O)[C@]23C[C@H]2C[C@H]2OC[C@@]2(OC(C)=O)[C@H]3[C@H](OC(=O)c2ccccc2)[C@]2(O)C[C@H](OC(=O)[C@H](O)[C@@H](NC(=O)OC(C)(C)C)c3ccccc3)C(C)=C1C2(C)C [taxoid of formula Ib]
Solubility ([1]; in Gelucire 44/14 (lauroyl macrogol-32 glycerides), excipient melted up to 70° C.): 96 mg/g
Solubility ([1]; in Imwitor 988 (Glyceryl mono-dicaprylate), semi-solid excipient melted up to 70° C.): 283 mg/g
Solubility ([1]; in Myrj 45 (POE stearate), excipient melted up to 70° C.): 128 mg/g
Solubility ([1]; in PEG 4000 (polyethylene glycol 1500), excipient melted up to 70° C.): >50* mg/g
Solubility ([1]; in Vitamin E TPGS (α-tocopherol PEG succinate), excipient melted up to 70° C.): 73 mg/g
Solubility ([2]; in Capryol 90 (Polyethylene glycol monocaprylate)): 281 mg/g
Solubility ([2]; in Cremophor EL (POE hydrogenated castor oil)): 94 mg/g
Solubility ([2]; in Crossential O94 (Oleic acid)): 37 mg/g
Solubility ([2]; in Edenor C8 98-100 (Caprylic acid)): 138 mg/g
Solubility ([2]; in Ethanol): 250 mg/g
Solubility ([2]; in HPβ cyclodextrin): 0.28 mg/g
Solubility ([2]; in Labrafil M1944 CS (oleyl macrogol-6-glycerides)): 52 mg/g
Solubility ([2]; in Labrasol (Caprylocaproyl macrogol-8 glycerides)): 244 mg/g
Solubility ([2]; in Lauroglycol 129 (PG monolaurate)): 129 mg/g
Solubility ([2]; in Maisine 35-1 (Glyceryl linoleate)): 129 mg/g
Solubility ([2]; in Miglyol 812N (caprylic/capric triglyceride)): 65 mg/g
Solubility ([2]; in PEG 400 (polyethylene glycol 400)): 121 mg/g
Solubility ([2]; in PS 80 VG (POE monooleate)): 144 mg/g
Solubility ([2]; in PS 80 VG pH 6 (POE monooleate)): 135 mg/g
Solubility ([2]; in Peceol (Glyceryl monooleate)): 106 mg/g
Solubility ([2]; in Phosal 50 PG (Phosphatidylcholine ≧ 50% in propylene glycol)): 27 mg/g
Solubility ([2]; in Phosal 50 SA (Phosphatidylcholine 50 ± 3% in alcohol, safflower oil, glyceryl stearate, coconut oil and ascorbyl palmitate)): 97 mg/g
Solubility ([2]; in Phosal 75 SA (Phosphatidylcholine 75 ± 3% in alcohol, safflower oil, glyceryl stearate, coconut oil and ascorbyl palmitate)): 122 mg/g
Solubility ([2]; in Plurol diisostearic): 23 mg/g
Solubility ([2]; in Plurol oleic CC497 (Polyglyceryl 6 oleate)): 42 mg/g
Solubility ([2]; in Soybean oil (glycerides, linoleic acid 50-57%)): 16 mg/g
Solubility ([2]; in Transcutol (Diethylene glycol monoethyl ether)): 197 mg/g
